Results taken from ChEMBL document CHEMBL3600291, “Synthesis and carbonic anhydrase I, II, IX and XII inhibitory activity of sulfamates incorporating piperazinyl-ureido moieties” (Bioorg Med Chem, 2015).

Legend:
Carbonic anhydrase 9 = Carbonic anhydrase 9 (Homo sapiens, UniProt Q16790); experiment: Inhibition of human recombinant carbonic anhydrase-9 pre-incubated for 15 mins by stopped-flow CO2 hydration assay
Carbonic anhydrase 1 = Carbonic anhydrase 1 (Homo sapiens, UniProt P00915); experiment: Inhibition of human recombinant carbonic anhydrase-1 pre-incubated for 15 mins by stopped-flow CO2 hydration assay
Chain of Carbonic anhydrase 1 (P00915 whole entry): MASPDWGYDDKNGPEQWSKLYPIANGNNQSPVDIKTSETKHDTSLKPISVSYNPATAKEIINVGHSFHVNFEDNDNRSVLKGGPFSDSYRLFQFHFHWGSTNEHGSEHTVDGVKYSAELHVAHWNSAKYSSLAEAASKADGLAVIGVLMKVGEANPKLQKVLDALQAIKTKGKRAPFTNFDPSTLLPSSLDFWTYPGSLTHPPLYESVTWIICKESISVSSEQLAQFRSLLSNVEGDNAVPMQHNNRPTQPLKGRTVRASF

Carbonic anhydrase 2 = Carbonic anhydrase 2 (Homo sapiens, UniProt P00918); experiment: Inhibition of human recombinant carbonic anhydrase-2 pre-incubated for 15 mins by stopped-flow CO2 hydration assay
Carbonic anhydrase 12 = Carbonic anhydrase 12 (Homo sapiens, UniProt O43570); experiment: Inhibition of human recombinant carbonic anhydrase-12 pre-incubated for 15 mins by stopped-flow CO2 hydration assay
Chain of Carbonic anhydrase 12 (O43570 whole entry): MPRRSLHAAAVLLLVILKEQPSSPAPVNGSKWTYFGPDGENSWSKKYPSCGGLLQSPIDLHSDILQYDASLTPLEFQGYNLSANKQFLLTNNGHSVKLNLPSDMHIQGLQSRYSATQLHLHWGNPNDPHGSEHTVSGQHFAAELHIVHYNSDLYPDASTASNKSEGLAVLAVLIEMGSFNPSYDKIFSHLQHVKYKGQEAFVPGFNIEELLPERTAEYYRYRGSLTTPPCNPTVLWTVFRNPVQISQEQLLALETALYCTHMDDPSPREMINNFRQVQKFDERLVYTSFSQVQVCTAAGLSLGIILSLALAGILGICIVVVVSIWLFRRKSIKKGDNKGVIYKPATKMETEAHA

Row | Structure (SMILES) | Ki (Carbonic anhydrase 9) | Ki (Carbonic anhydrase 1) | Ki (Carbonic anhydrase 2) | Ki (Carbonic anhydrase 12)
1 | NS(=O)(=O)Oc1ccc(NC(=O)N2CCN(c3nccc(-c4ccc(C(F)(F)F)cc4)n3)CC2)cc1 | 24.3 nM | – | – | –
2 | O=C(Nc1ccc(O)cc1)N1CCN(Cc2ccccc2)CC1 | 113 nM | > 10000 nM | – | –
3 | NS(=O)(=O)Oc1ccc(NC(=O)N2CCN(c3nccc(-c4ccc(Br)cc4)n3)CC2)cc1 | 114 nM | – | – | –
4 | O=C(Nc1ccc(O)cc1)N1CCN(c2ccccc2)CC1 | 121 nM | – | – | –
5 | COc1cccc(N2CCN(C(=O)Nc3ccc(OS(N)(=O)=O)cc3)CC2)c1 | 34.1 nM | 88.1 nM | 11.2 nM | 37 nM
6 | Cc1cccc(N2CCN(C(=O)Nc3ccc(OS(N)(=O)=O)cc3)CC2)c1C | 32.3 nM | 63.5 nM | 11.1 nM | 1 nM
7 | NS(=O)(=O)Oc1ccc(NC(=O)N2CCN(c3ccccc3)CC2)cc1 | 11.1 nM | 897 nM | 71.9 nM | 1 nM
8 | Cc1cccc(N2CCN(C(=O)Nc3ccc(O)cc3)CC2)c1 | 549 nM | – | – | –
9 | NS(=O)(=O)Oc1ccc(NC(=O)N2CCN(c3nccc(-c4cc5ccccc5o4)n3)CC2)cc1 | 6.7 nM | 70.2 nM | 1 nM | 1 nM
10 | O=C(Nc1ccc(O)cc1)N1CCN(c2ccc(F)cc2)CC1 | 36.9 nM | – | – | –
11 | Cc1cccc(N2CCN(C(=O)Nc3ccc(OS(N)(=O)=O)cc3)CC2)c1 | 0.91 nM | 851 nM | 15.9 nM | 35.8 nM
12 | COc1ccc(N2CCN(C(=O)Nc3ccc(OS(N)(=O)=O)cc3)CC2)cc1 | 114 nM | 282 nM | 9.1 nM | 1.1 nM
13 | NS(=O)(=O)Oc1ccc(NC(=O)N2CCN(c3ccc(Cl)cc3)CC2)cc1 | 10.4 nM | 581 nM | 16.9 nM | 84.5 nM
14 | NS(=O)(=O)Oc1ccc(NC(=O)N2CCN(Cc3ccccc3)CC2)cc1 | 10.5 nM | 317 nM | 11.7 nM | 1 nM
15 | NS(=O)(=O)Oc1ccc(NC(=O)N2CCN(c3ccc(F)cc3)CC2)cc1 | 61.5 nM | 9.4 nM | 18.2 nM | 64.7 nM
16 | O=C(Nc1ccc(O)cc1)N1CCN(c2ccc(Cl)cc2)CC1 | 80.5 nM | > 10000 nM | – | –
